Measured values taken from patent publication US20160122406A1, “ANALOGS OF PITUITARY ADENYLATE CYCLASE-ACTIVATING POLYPEPTIDE (PACAP) AND METHODS FOR THEIR USE” (THE ADMINISTRATORS OF THE TULANE EDUCATIONAL FUND, priority 2013, published 2016).
Square brackets hold non-standard residues; d marks the D form. * marks the point of attachment. Iac = imidazole-4-acrylic acid, O=C(/C=C/c1c[nH]cn1)*; Acetyl(2-(4-imidazolyl)) = O=C(Cc1c[nH]cn1)*

System: Male Sprague-Dawley rats
Assay: Arterial blood pressure and heart rate after intravenous injection in anesthetized rats
Type: in vivo
Conditions: 10 micrograms i.v.; for change in arterial blood pressure / change in arterial pulse pressure: isoflurane-anesthetized rats; for heart rate before intravenous injection: the 'from' value; for heart rate after intravenous injection: the 'to' value
From the text: FIG. 9 is a graph showing the changes in arterial blood pressure caused by [Iaa^1]PACAP38, [Iaa^1,D-Ser^2]PACAP38, [Iaa^1,Ala^22]PACAP38, and [Iaa^1,D-Ser^2,Ala^22]PACAP38. Male Sprague-Dawley rats (300-325 g) were anesthetized with 5% isoflurane for induction and then intubated. The rats were then ventilated (Hallowell EMC) with 100% O2 and 1-2% isoflurane. A PE-50 cannula was then placed in the femoral artery and connected to a pressure transducer. The arterial pressure signal was sent to an electronic chart recorder (BioPac). Heart rate was electronically derived from the arterial pressure signal. A similar PE-50 cannula was also placed in the femoral vein to allow for intravenous injection of the test peptides. Ten micrograms of the test peptides were injected intravenously in 100 μl of 0.9% NaCl in a random order and the cannula was immediately flushed with 100 μl of 0.9% NaCl. Changes in blood pressure and heart rate were calculated from the electronic record. […] Intravenous injection of [Iaa1]PACAP38 or [Iaa1,Ala22]PACAP38 also produced an increase in the heart rate from 378 bpm to 425 bpm or from 415 bpm to 440 bpm, respectively.
FIG. 10 is a graph showing the changes in arterial blood pressure caused by [Iac^1]PACAP38, [Iac^1,Ala^22]PACAP38, [Iac^1,D-Ser^2,Ala^22]PACAP38, and [Iaa^1,Ala^16,17,D-Lys^38]PACAP38. Male Sprague-Dawley rats (300-325 g) were anesthetized with 5% isoflurane for induction and then intubated. The rats were then ventilated (Hallowell EMC) with 100% O2 and 1-2% isoflurane. A PE-50 cannula was then placed in the femoral artery and connected to a pressure transducer. The arterial pressure signal was sent to an electronic chart recorder (BioPac). Heart rate was electronically derived from the arterial pressure signal. A similar PE-50 cannula was also placed in the femoral vein to allow for intravenous injection of the test peptides. Ten micrograms of the test peptides were injected intravenously in 100 μl of 0.9% NaCl in a random order and the cannula was immediately flushed with 100 μl of 0.9% NaCl. Changes in blood pressure and heart rate were calculated from the electronic record. Intravenous injection of [Iac^1,Ala^22]PACAP38 or [Iac^1,D-Ser^2,Ala^22]PACAP38 produced an increase in the heart rate from 416 bpm to 435 bpm or from 420 bpm to 441 bpm, respectively.
PACAP38 is a directly-acting arterial vasodilator and an indirectly-acting arterial vasoconstrictor. The rapid vasodilator response to intravenous administration of PACAP38 is due to stimulation of PAC1, VPAC1 and VPAC2 receptors in the blood vessels, while the slightly delayed vasoconstrictor response is mainly due to stimulation of PAC1 receptors in the adrenal medulla and the subsequent release of adrenal catecholamines. […] The critical parameter for picking a PACAP38 analog for treating a specific disease is not potency but therapeutic index.

Row | Substance | change in the heart rate (in words) | change in arterial blood pressure | change in arterial pulse pressure | change in arterial blood pressure (D-Lys38]PACAP38) | change in arterial pulse pressure (D-Lys38]PACAP38) | duration of the arterial blood pressure response (compared with [Iaa1]PACAP38) | heart rate before intravenous injection | heart rate after intravenous injection
1 | Iaa Ser Asp Gly Ile Phe Thr Asp Ser Tyr Ser Arg Tyr Arg Lys Ala Ala Ala Val Lys Lys Tyr Leu Ala Ala Val Leu Gly Lys Arg Tyr Lys Gln Arg Val Lys Asn D-Lys-NH2 ({Acetyl(2-(4-imidazolyl))}-SDGIFTDSYSRYRKAAAVKKYLAAVLGKRYKQRVKN[dK]-NH2; SMILES CC[C@H](C)[C@H](NC(=O)CNC(=O)[C@H](CC(=O)O)NC(=O)[C@H](CO)NC(=O)Cc1c[nH]cn1)C(=O)N[C@@H](Cc1ccccc1)C(=O)N[C@H](C(=O)N[C@@H](CC(=O)O)C(=O)N[C@@H](CO)C(=O)N[C@@H](Cc1ccc(O)cc1)C(=O)N[C@@H](CO)C(=O)N[C@@H](CCCNC(=N)N)C(=O)N[C@@H](Cc1ccc(O)cc1)C(=O)N[C@@H](CCCNC(=N)N)C(=O)N[C@@H](CCCCN)C(=O)N[C@@H](C)C(=O)N[C@@H](C)C(=O)N[C@@H](C)C(=O)N[C@H](C(=O)N[C@@H](CCCCN)C(=O)N[C@@H](CCCCN)C(=O)N[C@@H](Cc1ccc(O)cc1)C(=O)N[C@@H](CC(C)C)C(=O)N[C@@H](C)C(=O)N[C@@H](C)C(=O)N[C@H](C(=O)N[C@@H](CC(C)C)C(=O)NCC(=O)N[C@@H](CCCCN)C(=O)N[C@@H](CCCNC(=N)N)C(=O)N[C@@H](Cc1ccc(O)cc1)C(=O)N[C@@H](CCCCN)C(=O)N[C@@H](CCC(N)=O)C(=O)N[C@@H](CCCNC(=N)N)C(=O)N[C@H](C(=O)N[C@@H](CCCCN)C(=O)N[C@@H](CC(N)=O)C(=O)N[C@H](CCCCN)C(N)=O)C(C)C)C(C)C)C(C)C)[C@@H](C)O) [[Iaa^1,Ala^16,17,D-Lys^38]PACAP38] | large decrease | large and prolonged decrease | large and prolonged decrease | large decrease | large decrease | much longer | – | –
2 | Iac Ser Asp Gly Ile Phe Thr Asp Ser Tyr Ser Arg Tyr Arg Lys Gln Met Ala Val Lys Lys Ala Leu Ala Ala Val Leu Gly Lys Arg Tyr Lys Gln Arg Val Lys Asn Lys-NH2 (Iac-SDGIFTDSYSRYRKQMAVKKALAAVLGKRYKQRVKNK-NH2) [[Iac^1,Ala^22]PACAP38] | – | – | – | – | – | – | 416 bpm | 435 bpm
3 | Iaa Ser Asp Gly Ile Phe Thr Asp Ser Tyr Ser Arg Tyr Arg Lys Gln Met Ala Val Lys Lys Ala Leu Ala Ala Val Leu Gly Lys Arg Tyr Lys Gln Arg Val Lys Asn Lys-NH2 ({Acetyl(2-(4-imidazolyl))}-SDGIFTDSYSRYRKQMAVKKALAAVLGKRYKQRVKNK-NH2; SMILES CC[C@H](C)[C@H](NC(=O)CNC(=O)[C@H](CC(=O)O)NC(=O)[C@H](CO)NC(=O)Cc1c[nH]cn1)C(=O)N[C@@H](Cc1ccccc1)C(=O)N[C@H](C(=O)N[C@@H](CC(=O)O)C(=O)N[C@@H](CO)C(=O)N[C@@H](Cc1ccc(O)cc1)C(=O)N[C@@H](CO)C(=O)N[C@@H](CCCNC(=N)N)C(=O)N[C@@H](Cc1ccc(O)cc1)C(=O)N[C@@H](CCCNC(=N)N)C(=O)N[C@@H](CCCCN)C(=O)N[C@@H](CCC(N)=O)C(=O)N[C@@H](CCSC)C(=O)N[C@@H](C)C(=O)N[C@H](C(=O)N[C@@H](CCCCN)C(=O)N[C@@H](CCCCN)C(=O)N[C@@H](C)C(=O)N[C@@H](CC(C)C)C(=O)N[C@@H](C)C(=O)N[C@@H](C)C(=O)N[C@H](C(=O)N[C@@H](CC(C)C)C(=O)NCC(=O)N[C@@H](CCCCN)C(=O)N[C@@H](CCCNC(=N)N)C(=O)N[C@@H](Cc1ccc(O)cc1)C(=O)N[C@@H](CCCCN)C(=O)N[C@@H](CCC(N)=O)C(=O)N[C@@H](CCCNC(=N)N)C(=O)N[C@H](C(=O)N[C@@H](CCCCN)C(=O)N[C@@H](CC(N)=O)C(=O)N[C@@H](CCCCN)C(N)=O)C(C)C)C(C)C)C(C)C)[C@@H](C)O) [[Iaa^1,Ala^22]PACAP38] | – | large decrease | – | – | – | – | 415 bpm | 440 bpm
